# Laboratory results taken from ChEMBL document CHEMBL5252648, “Design, synthesis and bioactivity evaluation of a series of quinazolinone derivatives as potent PI3Kγ antagonist” (Bioorg Med Chem, 2023).
# Key:
# [1] = system: Jurkat; assay: Induction of apoptosis against human Jurkat cells assessed as early apoptotic cells at 1 uM measured for 24 hrs by Annexin V-FITC/propidium iodide staining based flow cytometry (reference value: 5.76%); format: functional
# [2] = system: MDA-MB-231; assay: Cytotoxicity against human MDA-MB-231 cells assessed as reduction in cell viability incubated for 24 hrs by CCK-8 assay; format: functional, cell-based; details: MDA-MB-231, 24 h
# [3] = system: THP-1; assay: Induction of apoptosis against human THP-1 cells assessed as early apoptotic cells at 1 uM measured for 24 hrs by Annexin V-FITC/propidium iodide staining based flow cytometry (reference value: 10.3%); format: functional
smiles,measurement,setting,value
COc1ccc(C#Cc2cccc3cc(C(C)Nc4ncnc5[nH]cnc45)n(-c4ccccc4)c(=O)c23)cc1 (stereo not drawn),Activity,[1],17.7%
same,IC50,[2],6.6 µM
same,Activity,[3],35.7%
